{"source": "patent US9949991B2", "about": "“Methods of treating aquaporin-mediated conditions” (Aeromics, Inc., priority 2013, dated 2018)", "key": {"[1]": {"system": "mouse middle cerebral artery occlusion (MCAo) model", "experiment": "Mouse MCAo stroke model, survival", "format": "in vivo", "details": "2 mg/kg i.p. loading dose plus 1 mg/ml at 8 μl/h pump, versus saline, P<0.05", "quoted_text": "To mimic this injury in mice, an intraluminal monofilament model of middle cerebral artery occlusion (MCAo) is used. Occlusion is achieved by inserting a surgical filament into the external carotid artery (ECA) and threading it forward into the internal carotid artery (ICA) until the tip blocks the origin of the MCA. […] This technique is used to study a temporary occlusion in which the MCA is blocked for one hour.\nSurvival—Mice are treated with Compound 5 using a 2 mg/kg i.p. loading dose and 1 mg/ml at 8 μl/h maintenance dose (delivered by an i.p. osmotic pump) of Compound 5, or given saline (controls; n=17) using an identical approach."}, "[2]": {"experiment": "Solubility in water"}, "[3]": {"system": "mouse middle cerebral artery occlusion (MCAo) model", "experiment": "Mouse MCAo stroke model, cerebral edema by MRI and neurological outcome", "quoted_text": "To mimic this injury in mice, an intraluminal monofilament model of middle cerebral artery occlusion (MCAo) is used. Occlusion is achieved by inserting a surgical filament into the external carotid artery (ECA) and threading it forward into the internal carotid artery (ICA) until the tip blocks the origin of the MCA. […] This technique is used to study a temporary occlusion in which the MCA is blocked for one hour. The filament is then removed allowing reperfusion to occur for 24 hours before the animal's brain was imaged using T2-weighted scans in a 9.4 T Bruker MRI scanner at the Case Center for Imaging Research (FIG. 10).\nCerebral Edema—Mice are given saline or treated with Compound 5 by multi-dosing at 5 mg/kg i.p. every three hours (n=8 per treatment). […] Ipsilateral and contralateral hemispheric volume is measured from the T2-weighted MR images of mice 24 hours post-icus. Relative change in hemispheric volume is calculated as a percent of the difference between ipsilateral brain volume (Vi) and contralateral brain volume (Vc) relative to the contralateral brain volume (Percent Change in Hemispheric Brain Volume=((Vi−Vc)/Vc)×100%.\nNeurological Outcome—In the same experiment as above, animals are scored for neurological outcome on a simple 5 point scale described in Manley, G. T. et al., Aquaporin-4 Deletion in Mice Reduces Brain Edema After Acute Water Intoxication and Ischemic Stroke, Nature Medicine, 6, 159-163 (2000)."}, "[4]": {"system": "mouse water toxicity model (cerebral edema)", "experiment": "Mouse water toxicity model, brain volume by MRI", "quoted_text": "The first time point at 5.67 min coincides with the scan slice at the middle of the brain during the first post-injection scan. Other time points are placed in a similar manner. The data is fitted to a single exponential equation: V/V0=Vi+dVmax(1−e^(−kt)); • where V/V0=relative brain volume, Vi=initial relative brain volume, dVmax=maximum change in relative brain volume, k=first order rate constant (min^−1), and t=time in minutes.\nMouse Water Toxicity Model—Brain Volume by Magnetic Resonance Imaging (MRI): MRI is used to measure changes in brain volume in response to water shock, using the water toxicity model. As described for the survival and brain water content studies above, mice are injected, IP, with a water bolus alone or water bolus and test compound at 0.76 mg/kg, and changes in brain volume as detected by MRI are monitored. […] High resolution T2-weighted sagittal scans (resolution=0.1 mm×0.1 mm×0.7 mm) of the mouse head are obtained prior to water injection, 5.67 min post water injection, and then every 5.2 minutes until the animal expires from the water loading. […] The cross sectional area of the brain in each imaging slice is measured by manual region-of-interest selection using ImageJ. Brain volumes are then calculated for each scan by summing the individual cross sectional brain areas and multiplying by the slice thickness (0.7 mm)."}, "[5]": {"system": "AQP", "experiment": "AQP inhibition cell-based assay (Table 1)", "method": "(§1) Structure activity relationships (SARs) are determined by assaying analogues of selected hits to guide chemistry for the preparation of new molecules to be tested for improved potency. For this iterative process we use a quantitative kinetic assay—the Aquaporin-Mediated Cell Volume Change Assa—in a 96-well multiplate reader. It detects changes in light scattering by a monolayer of CHO cells expressing the desired AQP as they shrink when exposed to hypertonic solution (300 mOsm→530 mOsm). FIG. 1 depicts the aquaporin-mediated cell volume change assay with AQP4 expressing cells (FIG. 1A) and AQP2 expressing cells (FIG. 1B). The cells expressing aquaporins shrink more rapidly than control cells, due to enhanced water flow, which shrinkage can be inhibited by a compound that inhibits the aquaporin."}, "[6]": {"system": "AQP4", "experiment": "Aquaporin-Mediated Cell Volume Change Assay, CHO cells expressing AQP4 (AQP4b)", "format": "cell-based", "details": "10 μM, stable CHO cell line, FIG. 2", "method": "as §1\n(§2) In FIG. 1, aquaporin-expressing cells are shown in the presence of DMSO (triangles) or in the presence of the test compound (here, Compound 3) at 10 μM (squares), along with CHO-CD81 expressing control cells in the presence of DMSO (diamonds). Each curve represents an average of 16 wells in the 96-well plate.\n(§3) In FIG. 1A, when the AQP4b cells treated with DMSO are exposed to hypertonic shock, the cells show rapid shrinking, giving a rise in light scattering (increasing relative change in absorbance, Abs/Abs0) followed by a decay as cells detach from the plate. […]"}, "[7]": {"molecular_target": "T1, AQP2 (Homo sapiens, UniProt P41181)", "T1 construct": "expressed in transfected cells", "T1 sequence (P41181 1-271)": "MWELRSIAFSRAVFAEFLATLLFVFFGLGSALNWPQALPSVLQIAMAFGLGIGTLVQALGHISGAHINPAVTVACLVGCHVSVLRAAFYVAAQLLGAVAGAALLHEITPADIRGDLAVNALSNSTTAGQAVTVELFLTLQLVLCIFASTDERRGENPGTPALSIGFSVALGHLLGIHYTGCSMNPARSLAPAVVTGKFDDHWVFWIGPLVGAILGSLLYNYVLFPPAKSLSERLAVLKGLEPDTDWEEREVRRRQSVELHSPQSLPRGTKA", "experiment": "Aquaporin-Mediated Cell Volume Change Assay, CHO cells expressing AQP2", "format": "cell-based", "details": "10 μM, stable CHO cell line, FIG. 2", "method": "as §1, §2, §3"}, "[8]": {"molecular_target": "T2, AQP1 (Homo sapiens, UniProt P29972)", "T2 construct": "expressed in transfected cells", "T2 sequence (P29972 1-269)": "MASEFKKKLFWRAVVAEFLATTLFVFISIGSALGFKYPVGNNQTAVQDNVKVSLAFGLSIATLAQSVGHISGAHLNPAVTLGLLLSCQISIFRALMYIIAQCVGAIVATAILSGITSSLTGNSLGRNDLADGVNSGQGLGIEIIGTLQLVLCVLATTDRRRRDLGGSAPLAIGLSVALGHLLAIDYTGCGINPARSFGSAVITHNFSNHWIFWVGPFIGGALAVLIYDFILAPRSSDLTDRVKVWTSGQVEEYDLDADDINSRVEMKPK", "experiment": "Aquaporin-Mediated Cell Volume Change Assay, CHO cells expressing AQP1 (specificity)", "format": "cell-based", "details": "10 μM, stable CHO cell line, FIG. 2", "method": "as §1\n(§4) The specificity of the compounds is tested against the most closely related of the 13 known aquaporins: AQP1, AQP2, AQP5 and both splice variants of AQP4 (A and B). A stable CHO cell line is created for each of the above aquaporins and the inhibition of water permeability using the Aquaporin-Mediated Cell Volume Change Assay with 10 μM Compound 3 is tested."}, "[9]": {"molecular_target": "T3, AQP5 (Homo sapiens, UniProt P55064)", "T3 construct": "expressed in transfected cells", "T3 sequence (P55064 whole entry)": "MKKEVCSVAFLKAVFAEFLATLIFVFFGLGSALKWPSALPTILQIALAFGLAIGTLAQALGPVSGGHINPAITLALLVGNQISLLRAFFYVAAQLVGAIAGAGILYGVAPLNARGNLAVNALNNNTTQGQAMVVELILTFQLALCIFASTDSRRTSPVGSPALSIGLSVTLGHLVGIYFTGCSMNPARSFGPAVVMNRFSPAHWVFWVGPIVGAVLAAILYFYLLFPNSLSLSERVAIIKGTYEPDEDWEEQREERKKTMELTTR", "experiment": "Aquaporin-Mediated Cell Volume Change Assay, CHO cells expressing AQP5 (specificity)", "format": "cell-based", "details": "10 μM, stable CHO cell line, FIG. 2", "method": "as §1, §4"}, "[10]": {"experiment": "Bioconversion in mouse plasma in vitro", "format": "in vitro ADME"}, "[11]": {"molecular_target": "purified AQP4b (Homo sapiens, UniProt P55087)", "sequence (P55087 23-323)": "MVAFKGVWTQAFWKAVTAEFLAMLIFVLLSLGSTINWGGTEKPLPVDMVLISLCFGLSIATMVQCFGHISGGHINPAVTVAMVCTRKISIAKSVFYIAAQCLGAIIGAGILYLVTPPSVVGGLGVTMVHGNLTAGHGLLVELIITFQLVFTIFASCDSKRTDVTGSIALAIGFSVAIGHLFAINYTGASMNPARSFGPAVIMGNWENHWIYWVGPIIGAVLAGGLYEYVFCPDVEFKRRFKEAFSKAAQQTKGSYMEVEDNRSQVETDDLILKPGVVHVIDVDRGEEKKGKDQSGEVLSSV", "experiment": "Hummel-Dryer style binding assay with [3H]-Compound 4 and purified AQP4b", "details": "for Kd: detergent buffer, 1 μM [3H]-Compound 4, read-out: relative affinity", "method": "To support the mechanism of action by which phenylbenzamides directly block AQP4, we perform in vitro binding studies using purified AQP4b and Compound 4 radiolabeled with ^3H. Using a Hummel-Dryer style assay, a gel filtration column is equilibratrated with buffer containing detergent, to maintain solubility of AQP4b, and 1 μM [^3H]-Compound 4. AQP4b is diluted to 250 μM in this column buffer and incubated at RT for 30 min. The sample is then applied to the column, fractions collected and the presence of [^3H]-Compound 4 detected by liquid scintillation counting. […] The rise in [^3H]-Compound 4 from a baseline value of 1 μM represents binding to each of these proteins."}}, "note": "Where two headings read alike, the source gives them in different places."}
{"smiles": "O=C(Nc1cc(C(F)(F)F)cc(C(F)(F)F)c1)c1cc(Cl)ccc1OP(=O)(O)O", "note": "[Compound 5]", "values": [{"measurement": "improvement in overall survival at 24 h", "setting": "[1]", "value": 29.4, "unit": "%"}, {"measurement": "solubility", "setting": "[2]", "value": 1000, "unit": "µg/mL"}, {"measurement": "neurological progression (in words)", "setting": "[3]; 5 mg/kg i.p. every three hours", "value": "did not progress into a state of severe paralysis or death"}, {"measurement": "relative change in ipsilateral brain volume", "setting": "[3]; 5 mg/kg i.p. every three hours, 24 hours after MCAo, ±SEM, control 13.4%±1.9%", "value": "4.2±1.7", "unit": "%"}, {"measurement": "reduction in brain swelling after MCAo", "setting": "[3]; 5 mg/kg i.p. every three hours, versus control", "value": 3.2, "unit": "fold"}, {"measurement": "average neurological score", "setting": "[3]; 5 point scale, P=0.025, control 2.77±0.66", "value": "0.88±0.31"}]}
{"smiles": "O=C(Nc1cc(C(F)(F)F)cc(C(F)(F)F)c1)c1cc(Cl)ccc1O", "note": "[Compound 1, N-(3,5-Bis-trifluoromethyl-phenyl)-5-chloro-2-hydroxy-benzamide]", "values": [{"measurement": "expected efficacious plasma concentration", "setting": "taken from the mouse water toxicity model", "value": 20, "unit": "ng/mL"}, {"measurement": "solubility", "setting": "[2]", "value": 3.8, "unit": "µg/mL"}, {"measurement": "extent of CE during the period of observation (in words)", "setting": "[4]; 0.76 mg/kg", "value": "reduced"}]}
{"smiles": "O=C(Nc1ccccc1)c1ccccc1", "note": "[Phenylbenzamide, reference compound]", "values": [{"measurement": "AQP Inhibition Cell-Based Assay", "setting": "[5]", "value": 4.5, "unit": "%"}, {"measurement": "reduction in the rate of CE (in words)", "setting": "[4]; 0.39 mg/kg", "value": "fails to show reduction"}]}
{"smiles": "O=C(Nc1cc(Cl)cc(Cl)c1)c1cc(Cl)ccc1O", "note": "[Compound 3]", "values": [{"measurement": "inhibition of water permeability (in words)", "setting": "[6]", "value": "inhibits"}, {"measurement": "inhibition of water permeability (in words)", "setting": "[7]", "value": "inhibits"}, {"measurement": "inhibition of water permeability (in words)", "setting": "[8]", "value": "poorly inhibits"}, {"measurement": "inhibition of water permeability (in words)", "setting": "[9]", "value": "poorly inhibits"}]}
{"smiles": "O=C(Nc1cc(C(F)(F)F)cc(C(F)(F)F)c1)c1cc(Cl)ccc1OP(=O)(O)O", "values": [{"measurement": "bioconversion to Compound 1 (in words)", "setting": "[10]; added to mouse plasma in vitro", "value": "rapid bioconversion"}, {"measurement": "time sufficient to render the salt undetectable", "setting": "[10]; mouse plasma in vitro, 20° C.", "value": "Less than 5 minutes"}, {"measurement": "level of the salt in plasma samples of mice injected IP (in words)", "setting": "IP injection", "value": "undetectable"}, {"measurement": "bioavailability and conversion to Compound 1 (in words)", "setting": "IP injection, Compound 1 detected in plasma", "value": "good bioavailability and near-complete conversion"}]}
{"smiles": "O=C(Nc1cc(C(F)(F)F)cc(C(F)(F)F)c1)c1cc(C(F)(F)F)ccc1O", "note": "[Compound 4, N-[3,5-bis(trifluoromethyl)phenyl]-2-hydroxy-5-(trifluoromethyl)benzamide]", "values": [{"measurement": "Kd", "setting": "[11]; monomeric AQP4b", "value": "< 1", "unit": "µM"}, {"measurement": "binding to solubilized AQP4b (in words)", "setting": "[11]; solubilized AQP4b", "value": "relatively weak binding"}, {"measurement": "Kd", "setting": "[11]; tetrameric AQP4b", "value": "~100", "unit": "µM"}]}
